The test has as its target T1, EZH2 (Homo sapiens, UniProt Q15910).
T1 construct: Protocol of the Cellular Assay of Target Protein Degradation (VCaP Cells, ELISA); endogenous in cells; host or cells: VCaP cells
Put plainly: Cellular assay of target protein degradation (VCaP cells, ELISA). Type of test: cell-based. The conditions noted are these: 4 hours, protein degradation range at indicated concentration (relative to DMSO control). In short, it runs like this:
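VCaP cells grown ≥3 days in RPMI with 5% CSS, then dosed with compounds in 0.1% DMSO for 4 h. Lysates analysed by sandwich ELISA for EZH2 with TMB readout at 450 nm, 562 nm used for background subtraction.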
For orientation: ELISA stands for enzyme-linked immunosorbent assay.
T1 sequence (Q15910 whole entry): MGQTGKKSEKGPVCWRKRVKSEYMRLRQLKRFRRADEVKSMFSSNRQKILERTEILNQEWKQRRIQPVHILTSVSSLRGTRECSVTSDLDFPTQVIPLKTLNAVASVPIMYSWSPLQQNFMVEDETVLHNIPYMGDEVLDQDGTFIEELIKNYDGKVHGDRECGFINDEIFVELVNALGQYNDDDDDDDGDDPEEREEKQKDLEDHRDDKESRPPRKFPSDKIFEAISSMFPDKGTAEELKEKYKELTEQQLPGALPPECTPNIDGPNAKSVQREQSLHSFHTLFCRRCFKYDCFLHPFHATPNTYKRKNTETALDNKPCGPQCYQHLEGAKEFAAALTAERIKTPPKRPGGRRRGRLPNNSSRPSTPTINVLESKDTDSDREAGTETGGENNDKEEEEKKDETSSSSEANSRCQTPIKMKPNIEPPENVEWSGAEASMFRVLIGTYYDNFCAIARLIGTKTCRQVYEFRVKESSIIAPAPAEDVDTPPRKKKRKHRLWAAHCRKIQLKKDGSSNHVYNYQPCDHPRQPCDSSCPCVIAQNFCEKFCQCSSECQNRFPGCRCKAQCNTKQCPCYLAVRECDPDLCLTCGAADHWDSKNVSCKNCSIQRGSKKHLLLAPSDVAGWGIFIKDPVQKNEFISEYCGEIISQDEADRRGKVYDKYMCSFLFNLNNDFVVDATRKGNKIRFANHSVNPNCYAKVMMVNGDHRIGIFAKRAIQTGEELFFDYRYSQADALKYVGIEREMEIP
T1 sequence (O75530 whole entry partner): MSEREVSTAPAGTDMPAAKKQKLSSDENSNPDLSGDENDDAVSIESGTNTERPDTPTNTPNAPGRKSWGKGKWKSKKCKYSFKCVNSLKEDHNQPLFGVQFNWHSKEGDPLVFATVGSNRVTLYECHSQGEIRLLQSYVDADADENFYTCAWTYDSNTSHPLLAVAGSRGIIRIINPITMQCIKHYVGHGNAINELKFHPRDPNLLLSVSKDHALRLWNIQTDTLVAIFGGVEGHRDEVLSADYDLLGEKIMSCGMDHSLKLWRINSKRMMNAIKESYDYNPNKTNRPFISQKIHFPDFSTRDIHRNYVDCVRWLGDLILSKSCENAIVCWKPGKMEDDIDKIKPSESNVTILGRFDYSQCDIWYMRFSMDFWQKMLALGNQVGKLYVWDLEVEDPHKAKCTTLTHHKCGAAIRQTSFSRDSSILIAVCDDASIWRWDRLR
T1 sequence (Q15022 whole entry partner): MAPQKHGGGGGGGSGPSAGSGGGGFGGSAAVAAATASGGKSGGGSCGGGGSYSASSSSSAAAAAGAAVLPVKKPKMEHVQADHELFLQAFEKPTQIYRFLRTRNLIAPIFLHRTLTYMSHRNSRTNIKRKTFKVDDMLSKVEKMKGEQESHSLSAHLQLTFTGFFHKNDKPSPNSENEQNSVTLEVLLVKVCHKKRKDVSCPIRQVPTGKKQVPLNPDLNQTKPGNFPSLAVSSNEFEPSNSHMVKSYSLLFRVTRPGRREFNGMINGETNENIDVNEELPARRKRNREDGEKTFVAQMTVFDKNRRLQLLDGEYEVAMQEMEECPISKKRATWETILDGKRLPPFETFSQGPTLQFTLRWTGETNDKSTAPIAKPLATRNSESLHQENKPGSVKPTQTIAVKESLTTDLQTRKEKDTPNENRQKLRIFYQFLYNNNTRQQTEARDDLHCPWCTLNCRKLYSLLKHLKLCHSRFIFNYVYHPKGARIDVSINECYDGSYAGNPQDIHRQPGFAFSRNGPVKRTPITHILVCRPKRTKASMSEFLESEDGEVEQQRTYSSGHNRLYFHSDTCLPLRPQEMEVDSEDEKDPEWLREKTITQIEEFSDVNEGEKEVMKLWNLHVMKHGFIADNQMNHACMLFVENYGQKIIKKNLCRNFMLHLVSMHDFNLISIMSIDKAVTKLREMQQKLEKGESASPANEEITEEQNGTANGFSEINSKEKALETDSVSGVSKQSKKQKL
Turning to `CCN(c1cc(-c2ccc(OCCCCOCCCOc3cc(-c4scnc4C)ccc3CNC(=O)[C@@H]3C[C@@H](O)CN3C(=O)[C@H](C(C)C)N3Cc4ccccc4C3=O)cc2)cc(C(=O)NCc2c(C)cc(C)[nH]c2=O)c1C)C1CCOCC1` [Compound 40, (2S,4R)-N-{[2-(3-{4-[4-(3-{[(4,6-dimethyl-2-oxo-1,2-dihydropyridin-3-yl)methyl]carbamoyl}-5-[ethyl(oxan-4-yl)amino]-4-methylphenyl)phenoxy]butoxy}propoxy)-4-(4-methyl-1,3-thiazol-5-yl)phenyl]methyl}-4-hydroxy-1-[(2S)-3-methyl-2-(1-oxo-2,3-dihydro-1H-isoindol-2-yl)butanoyl]pyrrolidine-2-carboxamide], the “percent target protein degradation class” value is “B (B = degradation between 30% and 60%)”.
Take `CCN(c1cc(-c2ccc(OCCCCOCC(=O)N[C@H](C(=O)N3C[C@H](O)C[C@H]3C(=O)N[C@@H](C)c3ccc(-c4scnc4C)cc3)C(C)(C)C)cc2)cc(C(=O)NCc2c(C)cc(C)[nH]c2=O)c1C)C1CCOCC1` [Compound 93]: the “percent target protein degradation class” value is listed as “A (A = degradation more than 60%)”.
Turning to `CCN(c1cc(-c2ccc(OCCOCCOCCNc3cccc4c3C(=O)N(C3CCC(=O)NC3=O)C4=O)cc2)cc(C(=O)NCc2c(C)cc(C)[nH]c2=O)c1C)C1CCOCC1` (stereo not shown) [Compound 33, N-[(4,6-dimethyl-2-oxo-1,2-dihydropyridin-3-yl)methyl]-5-(4-{2-[2-(2-{[2-(2,6-dioxopiperidin-3-yl)-1,3-dioxo-2,3-dihydro-1H-isoindol-4-yl]amino}ethoxy)ethoxy]ethoxy}phenyl)-3-[ethyl(oxan-4-yl)amino]-2-methylbenzamide], the “percent target protein degradation class” value was “B (B = degradation between 30% and 60%)”.
The entry for `CCN(c1cc(-c2ccc(CN3CCN(CC4CCN(c5ccc6c(c5)C(=O)N(C5CCC(=O)NC5=O)C6=O)CC4)CC3)cc2)cc(C(=O)NCc2c(C)cc(C)[nH]c2=O)c1C)C1CCOCC1` (stereo not shown) [Compound 113, N-((4,6-dimethyl-2-oxo-1,2-dihydropyridin-3-yl)methyl)-4′-((4-((1-(2-(2,6-dioxopiperidin-3-yl)-1,3-dioxoisoindolin-5-yl)piperidin-4-yl)methyl)piperazin-1-yl)methyl)-5-(ethyl(tetrahydro-2H-pyran-4-yl)amino)-4-methyl-[1,1′-biphenyl]-3-carboxamide] is “B (B = degradation between 30% and 60%)”; for `CCN(c1cc(-c2ccc(OCCOCCOCC(=O)N[C@H](C(=O)N3C[C@H](O)C[C@H]3C(=O)NCc3ccc(-c4scnc4C)cc3)C(C)(C)C)cc2)cc(C(=O)NCc2c(C)cc(C)[nH]c2=O)c1C)C1CCOCC1` [Compound 31] it is “A (A = degradation more than 60%)”; for `CCN(c1cc(-c2ccc(CN3CCN(CCOCC(=O)N[C@H](C(=O)N4C[C@H](O)C[C@H]4C(=O)N[C@@H](C)c4ccc(-c5scnc5C)cc4)C(C)(C)C)CC3)cc2)cc(C(=O)NCc2c(C)cc(C)[nH]c2=O)c1C)C1CCOCC1` [Compound 116, (2S,4R)-1-((S)-2-(2-(2-(4-((3′-(((4,6-dimethyl-2-oxo-1,2-dihydropyridin-3-yl)methyl)carbamoyl)-5′-(ethyl(tetrahydro-2H-pyran-4-yl)amino)-4′-methyl-[1,1′-biphenyl]-4-yl)methyl)piperazin-1-yl)ethoxy)acetamido)-3,3-dimethylbutanoyl)-4-hydroxy-N-((S)-1-(4-(4-methylthiazol-5-yl)phenyl)ethyl)pyrrolidine-2-carboxamide] it is “A (A = degradation more than 60%)”.
The entry for `Cc1cc(C)c(CNC(=O)c2c(C)n(C(C)C3CCN(C(=O)COCCOCCOCCOCCOCC(=O)N[C@H](C(=O)N4C[C@H](O)C[C@H]4C(=O)NCc4ccc(-c5scnc5C)cc4)C(C)(C)C)CC3)c3ccccc23)c(=O)[nH]1` (stereo partly drawn) [Compound 11, N-[(4,6-dimethyl-2-oxo-1,2-dihydropyridin-3-yl)methyl]-1-{1-[1-(1-{[(2S)-1-[(2S,4R)-4-hydroxy-2-({[4-(4-methyl-1,3-thiazol-5-yl)phenyl]methyl}carbamoyl)pyrrolidin-1-yl]-3,3-dimethyl-1-oxobutan-2-yl]carbamoyl}-2,5,8,11,14-pentaoxahexadecanoyl)piperidin-4-yl]ethyl}-2-methyl-1H-indole-3-carboxamide] is “B (B = degradation between 30% and 60%)”.

The record behind these values is patent US11857519B2, “Compounds and methods for the targeted degradation of enhancer of zeste homolog 2 polypeptide” (Arvinas Operations, Inc., priority 2016, dated 2024).
